Non-standard residues stand in square brackets, D forms with d. Residues, ends and D or L forms follow the SMILES beside them. *: point of attachment. DOTA = O=C(O)CN1CCN(CC(=O)O)CCN(CC(=O)*)CCN(CC(=O)O)CC1; Bpa = N[C@@H](Cc1ccc(C(=O)c2ccccc2)cc1)C(=O)O; d2Nal = N[C@H](Cc1ccc2ccccc2c1)C(=O)O; 3Pal = N[C@@H](Cc1cccnc1)C(=O)O; d3Pal = N[C@H](Cc1cccnc1)C(=O)O; azaGly = NNC(=O)O; Sar = CNCC(=O)O
The molecules below were run on LHRH binding sites on human ovarian cancer cells (EFO-27). Details: not given.
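Note: Cell-associated radioactivity on confluent EFO-27 monolayers in 96-well plates, measured by microplate scintillation counting.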

SMILES | EC50 [nM]
CNCC(=O)N[C@@H](CCCNC(=N)N)C(=O)N[C@@H](Cc1c[nH]c2ccccc12)C(=O)N[C@@H](CO)C(=O)N[C@@H](Cc1c[nH]cn1)C(=O)N[C@H](CCCNC(=N)N)C(=O)N[C@@H](Cc1c[nH]c2ccccc12)C(=O)N[C@@H](Cc1ccc(C(=O)c2ccccc2)cc1)C(=O)N1CCC[C@H]1C(=O)NCCCN(C)CCCNC(=O)CN1CCN(CC(=O)O)CCN(CC(=O)O)CCN(CC(=O)O)CC1 [compound 3045] | 210 ± 80
N=C(N)NCCC[C@H](NC(=O)[C@H](N)Cc1ccc2ccccc2c1)C(=O)N[C@@H](Cc1c[nH]c2ccccc12)C(=O)N[C@@H](CO)C(=O)N[C@@H](Cc1c[nH]cn1)C(=O)N[C@H](CCCNC(=N)N)C(=O)N[C@@H](Cc1c[nH]c2ccccc12)C(=O)N[C@@H](Cc1ccc(C(=O)c2ccccc2)cc1)C(=O)N1CCC[C@H]1C(=O)NCC(=O)NCCCCNC(=O)CN1CCN(CC(=O)O)CCN(CC(=O)O)CCN(CC(=O)O)CC1 [compound 2990] | 30200 ± 8280
CNCC(=O)N[C@@H](CCCNC(=N)N)C(=O)N[C@@H](Cc1c[nH]c2ccccc12)C(=O)N[C@@H](CO)C(=O)N[C@@H](Cc1c[nH]cn1)C(=O)N[C@H](CCCNC(=N)N)C(=O)N[C@@H](Cc1c[nH]c2ccccc12)C(=O)N[C@@H](Cc1ccc(C(=O)c2ccccc2)cc1)C(=O)N1CCC[C@H]1C(=O)NCCCCNC(=O)CN1CCN(CC(=O)O)CCN(CC(=O)O)CCN(CC(=O)O)CC1 [BRU-3041] | 230 to 500
CC(C)C[C@H](NC(=O)[C@H](CCCNC(=N)N)NC(=O)[C@@H](Cc1ccc2ccccc2c1)NC(=O)CN1CCN(CC(=O)O)CCN(CC(=O)O)CCN(CC(=O)O)CC1)C(=O)N[C@@H](CO)C(=O)N[C@@H](Cc1c[nH]cn1)C(=O)N[C@H](CCCNC(=N)N)C(=O)N[C@@H](Cc1c[nH]c2ccccc12)C(=O)N[C@@H](Cc1ccc(C(=O)c2ccccc2)cc1)C(=O)N1CCC[C@H]1C(=O)NNC(N)=O [compound 3108] ({DOTA}-[d2Nal]RLSH[dR]W[Bpa]P[azaGly]-NH2) | 560
N=C(N)NCCC[C@H](NC(=O)[C@@H](Cc1ccc2ccccc2c1)NC(=O)[C@@H](N)CCCCNC(=O)CN1CCN(CC(=O)O)CCN(CC(=O)O)CCN(CC(=O)O)CC1)C(=O)N[C@@H](Cc1c[nH]c2ccccc12)C(=O)N[C@@H](CO)C(=O)N[C@@H](Cc1c[nH]cn1)C(=O)N[C@H](CCCNC(=N)N)C(=O)N[C@@H](Cc1c[nH]c2ccccc12)C(=O)N[C@@H](Cc1ccc(C(=O)c2ccccc2)cc1)C(=O)N1CCC[C@H]1C(=O)NNC(N)=O [BRU 3098] | 410
CN(CC(=O)N[C@@H](Cc1c[nH]cn1)C(=O)N[C@@H](Cc1c[nH]c2ccccc12)C(=O)N[C@@H](CO)C(=O)N[C@@H](Cc1c[nH]cn1)C(=O)N[C@H](Cc1cccnc1)C(=O)N[C@@H](Cc1c[nH]c2ccccc12)C(=O)N[C@@H](Cc1ccc(C(=O)c2ccccc2)cc1)C(=O)N1CCC[C@H]1C(=O)NNC(N)=O)C(=O)CN1CCN(CC(=O)O)CCN(CC(=O)O)CCN(CC(=O)O)CC1 [compound 2673] ({DOTA}-[Sar]HWSH[d3Pal]W[Bpa]P[azaGly]-NH2) | 12300
CN(CC(=O)N[C@@H](Cc1cccnc1)C(=O)N[C@@H](Cc1c[nH]c2ccccc12)C(=O)N[C@@H](CO)C(=O)N[C@@H](Cc1c[nH]cn1)C(=O)N[C@H](CCCNC(=N)N)C(=O)N[C@@H](Cc1c[nH]c2ccccc12)C(=O)N[C@@H](Cc1ccc(C(=O)c2ccccc2)cc1)C(=O)N1CCC[C@H]1C(=O)NNC(N)=O)C(=O)CN1CCN(CC(=O)O)CCN(CC(=O)O)CCN(CC(=O)O)CC1 [BRU-2818] ({DOTA}-[Sar][3Pal]WSH[dR]W[Bpa]P[azaGly]-NH2) | 1620
CNCC(=O)N[C@@H](CCCNC(=N)N)C(=O)N[C@@H](Cc1c[nH]c2ccccc12)C(=O)N[C@@H](CO)C(=O)N[C@@H](Cc1c[nH]cn1)C(=O)N[C@H](CCCNC(=N)N)C(=O)N[C@@H](Cc1c[nH]c2ccccc12)C(=O)N[C@@H](Cc1ccc(C(=O)c2ccccc2)cc1)C(=O)N1CCC[C@H]1C(=O)NCCOCCOCCNC(=O)CN1CCN(CC(=O)O)CCN(CC(=O)O)CCN(CC(=O)O)CC1 [BRU-3043] | 230 to 500
N=C(N)NCCC[C@H](NC(=O)[C@@H](Cc1ccc2ccccc2c1)NC(=O)CN1CCN(CC(=O)O)CCN(CC(=O)O)CCN(CC(=O)O)CC1)C(=O)N[C@@H](Cc1c[nH]c2ccccc12)C(=O)N[C@@H](CO)C(=O)N[C@@H](Cc1c[nH]cn1)C(=O)N[C@H](CCCNC(=N)N)C(=O)N[C@@H](Cc1c[nH]c2ccccc12)C(=O)N[C@@H](Cc1ccc(C(=O)c2ccccc2)cc1)C(=O)N1CCC[C@H]1C(=O)Nc1ccccc1 [compound 3006] | 420
N=C(N)NCCC[C@H](NC(=O)[C@H](CO)NC(=O)[C@H](Cc1c[nH]c2ccccc12)NC(=O)[C@H](CCCNC(=N)N)NC(=O)[C@@H](Cc1ccc2ccccc2c1)NC(=O)CN1CCN(CC(=O)O)CCN(CC(=O)O)CCN(CC(=O)O)CC1)C(=O)N[C@H](Cc1c[nH]c2ccccc12)C(=O)N[C@@H](Cc1c[nH]c2ccccc12)C(=O)N[C@@H](Cc1ccc(C(=O)c2ccccc2)cc1)C(=O)N1CCC[C@H]1C(=O)NNC(N)=O [compound 3001] ({DOTA}-[d2Nal]RWSR[dW]W[Bpa]P[azaGly]-NH2) | 3280
N=C(N)NCCC[C@H](NC(=O)[C@H](N)Cc1ccc2ccccc2c1)C(=O)N[C@@H](Cc1c[nH]c2ccccc12)C(=O)N[C@@H](CO)C(=O)N[C@@H](Cc1c[nH]cn1)C(=O)N[C@H](CCCNC(=N)N)C(=O)N[C@@H](Cc1c[nH]c2ccccc12)C(=O)N[C@@H](Cc1ccc(C(=O)c2ccccc2)cc1)C(=O)N1CCC[C@H]1C(=O)NCCOCCNC(=O)CN1CCN(CC(=O)O)CCN(CC(=O)O)CCN(CC(=O)O)CC1 [compound 2991] | 210 ± 60
CN(CC(=O)N[C@@H](Cc1c[nH]cn1)C(=O)N[C@@H](Cc1c[nH]c2ccccc12)C(=O)N[C@@H](CO)C(=O)N[C@@H](Cc1c[nH]cn1)C(=O)N[C@H](CCCNC(=N)N)C(=O)N[C@@H](Cc1c[nH]c2ccccc12)C(=O)N[C@@H](Cc1c(F)c(F)c(F)c(F)c1F)C(=O)N1CCC[C@H]1C(=O)NNC(N)=O)C(=O)CN1CCN(CC(=O)O)CCN(CC(=O)O)CCN(CC(=O)O)CC1 [BRU-2722] | 4620

Same assay, conditions: EFO-27 cells, competition with [125I-Tyr8]BRU-2477, 90 min

SMILES | EC50 [nM]
CN(CC(=O)N[C@@H](Cc1c[nH]cn1)C(=O)N[C@@H](Cc1c[nH]c2ccccc12)C(=O)N[C@@H](CO)C(=O)N[C@@H](Cc1c[nH]cn1)C(=O)N[C@H](CO)C(=O)N[C@@H](Cc1c[nH]c2ccccc12)C(=O)N[C@@H](Cc1ccc(C(=O)c2ccccc2)cc1)C(=O)N1CCC[C@H]1C(=O)NNC(N)=O)C(=O)CN1CCN(CC(=O)O)CCN(CC(=O)O)CCN(CC(=O)O)CC1 [compound 2761] ({DOTA}-[Sar]HWSH[dS]W[Bpa]P[azaGly]-NH2) | 13600
N=C(N)NCCC[C@H](NC(=O)[C@@H](Cc1ccc2ccccc2c1)NC(=O)CN1CCN(CC(=O)O)CCN(CC(=O)O)CCN(CC(=O)O)CC1)C(=O)N[C@@H](Cc1c[nH]c2ccccc12)C(=O)N[C@@H](CO)C(=O)N[C@@H](Cc1c[nH]cn1)C(=O)N[C@H](CCCNC(=N)N)C(=O)N[C@@H](Cc1c[nH]c2ccccc12)C(=O)N[C@@H](Cc1ccc(C(=O)c2ccccc2)cc1)C(=O)N1C[C@@H](N)C[C@H]1C(=O)NNC(N)=O [compound 3062] | 320

Same assay, conditions: Table 5: modifications of amino acids at positions 1 and 2; in vitro binding on EFO-27 cells

SMILES | EC50 [nM]
N=C(N)NCCC[C@@H](NC(=O)[C@H](Cc1c[nH]cn1)NC(=O)[C@H](CO)NC(=O)[C@H](Cc1c[nH]c2ccccc12)NC(=O)[C@H](Cc1c[nH]cn1)NC(=O)[C@@H]1CCCN1C(=O)CNC(=O)CN1CCN(CC(=O)O)CCN(CC(=O)O)CCN(CC(=O)O)CC1)C(=O)N[C@@H](Cc1c[nH]c2ccccc12)C(=O)N[C@@H](Cc1ccc(C(=O)c2ccccc2)cc1)C(=O)N1CCC[C@H]1C(=O)NNC(N)=O [BRU-2667] ({DOTA}-GPHWSH[dR]W[Bpa]P[azaGly]-NH2) | 7290
N=C(N)NCCC[C@@H](NC(=O)[C@H](Cc1c[nH]cn1)NC(=O)[C@H](CO)NC(=O)[C@H](Cc1c[nH]c2ccccc12)NC(=O)[C@H](Cc1c[nH]cn1)NC(=O)CNC(=O)CN1CCN(CC(=O)O)CCN(CC(=O)O)CCN(CC(=O)O)CC1)C(=O)N[C@@H](Cc1c[nH]c2ccccc12)C(=O)N[C@@H](Cc1ccc(C(=O)c2ccccc2)cc1)C(=O)N1CCC[C@H]1C(=O)NNC(N)=O [BRU-2733] | 1180
CN(CC(=O)N[C@@H](CCCCN)C(=O)N[C@@H](Cc1c[nH]c2ccccc12)C(=O)N[C@@H](CO)C(=O)N[C@@H](Cc1c[nH]cn1)C(=O)N[C@H](CCCNC(=N)N)C(=O)N[C@@H](Cc1c[nH]c2ccccc12)C(=O)N[C@@H](Cc1ccc(C(=O)c2ccccc2)cc1)C(=O)N1CCC[C@H]1C(=O)NNC(N)=O)C(=O)CN1CCN(CC(=O)O)CCN(CC(=O)O)CCN(CC(=O)O)CC1 [BRU-2871] ({DOTA}-[Sar]KWSH[dR]W[Bpa]P[azaGly]-NH2) | 10000

Same assay, conditions: Table 8: N-substituted amino acid at position 1 and Gly as linker; in vitro binding on EFO-27 cells

SMILES | EC50 [nM]
COCCN(CC(=O)N[C@@H](Cc1c[nH]cn1)C(=O)N[C@@H](Cc1c[nH]c2ccccc12)C(=O)N[C@@H](CO)C(=O)N[C@@H](Cc1c[nH]cn1)C(=O)N[C@H](CCCNC(=N)N)C(=O)N[C@@H](Cc1c[nH]c2ccccc12)C(=O)N[C@@H](Cc1ccc(C(=O)c2ccccc2)cc1)C(=O)N1CCC[C@H]1C(=O)NNC(N)=O)C(=O)CNC(=O)CN1CCN(CC(=O)O)CCN(CC(=O)O)CCN(CC(=O)O)CC1 [compound 2796] | 340

Same assay, conditions: Table 12: modification of amino acid at position 3; EFO-27 cells

SMILES | EC50 [nM]
N=C(N)NCCC[C@H](NC(=O)[C@@H](Cc1ccc2ccccc2c1)NC(=O)CN1CCN(CC(=O)O)CCN(CC(=O)O)CCN(CC(=O)O)CC1)C(=O)N[C@H](Cc1c[nH]c2ccccc12)C(=O)N[C@@H](CO)C(=O)N[C@@H](Cc1c[nH]cn1)C(=O)N[C@H](CCCNC(=N)N)C(=O)N[C@@H](Cc1c[nH]c2ccccc12)C(=O)N[C@@H](Cc1ccc(C(=O)c2ccccc2)cc1)C(=O)N1CCC[C@H]1C(=O)NNC(N)=O [compound 3112] | 850

Same assay, conditions: Table 15: C-terminus chelator-functionalized peptides; EFO-27 cells, vs [125I-Tyr8]BRU-2477

SMILES | EC50 [nM]
CNCC(=O)N[C@@H](CCCNC(=N)N)C(=O)N[C@@H](Cc1c[nH]c2ccccc12)C(=O)N[C@@H](CO)C(=O)N[C@@H](Cc1c[nH]cn1)C(=O)N[C@H](CCCNC(=N)N)C(=O)N[C@@H](Cc1c[nH]c2ccccc12)C(=O)N[C@@H](Cc1ccc(C(=O)c2ccccc2)cc1)C(=O)N1CCC[C@H]1CNC(=O)CN1CCN(CC(=O)O)CCN(CC(=O)O)CCN(CC(=O)O)CC1 [compound 3117] (HELM PEPTIDE1{[Sar].R.W.S.H.[dR].W.[O=C(c1ccccc1)c1ccc(C[C@H](N[*:1])C(=O)[*:2])cc1].[O=C(O)CN1CCN(CC(=O)O)CCN(CC(=O)NC[C@@H]2CCCN2[*:1])CCN(CC(=O)O)CC1]}$$$$V2.0; N-terminus assumed) | 340

— patent US20120045393A1 (priority 2009, published 2012)
